Data: patent publication US12310364B2, “Safened compositions comprising pyridine carboxylate herbicides and cloquintocet” (Corteva Agriscience LLC, priority 2018, dated 2025)

Assays:
[1] = system: Matricaria chamomilla (wild chamomile), MATCH; experiment: Greenhouse postemergence trial, visual injury on wild chamomile; type: in vivo; conditions: herbicide alone 20 g/ha
Procedure: Greenhouse Trial Methodology-Evaluation of Postemergence Herbicidal […] in Crops […] When required to ensure good germination and healthy plants, a fungicide treatment and/or other chemical or physical treatment was applied. The plants were grown for 7-36 days (d) in a greenhouse with an approximate 14-hour (h) photoperiod which was maintained at about 23° C. during the day and 22° C. during the night. Nutrients and water were added on a regular basis and supplemental lighting was provided with overhead metal halide 1000-Watt lamps as necessary. The plants were employed for testing when they reached the second or third true leaf stage. Emulsifiable concentrates of each of each pyridine carboxylate herbicide (Compound A or Compound B) were prepared at 100 grams acid equivalent per liter (g ae/L). […] The concentrated stock solutions were further diluted with an aqueous mixture of 1.25% […] or MSO® Concentrate with LECI-TECH® to obtain stock solutions at reduced application rates for each herbicide. Spray solutions of the herbicide combinations (Compound A or Compound B plus safener) were prepared by adding weighed amounts or aliquots of the safener to the stock solutions of Compound A or Compound B to form 12-mL spray solutions in two-way combinations. […] Control plants were sprayed in the same manner with the solvent blank. All herbicide (component a) application rates are given as “g ae/ha” and all safener (component b) application rates are given as “g ai/ha.” The treated plants and control plants were placed in a greenhouse as described above and watered by sub-irrigation to prevent wash-off of the test compounds.

[2] = system: Fagopyrum esculentum (common buckwheat), FAGES; experiment: Greenhouse postemergence trial, visual injury on common buckwheat; type: in vivo
Text: Greenhouse Trial Methodology—Evaluation of Postemergence Herbicidal Safening in Crops
Seeds of the desired test plant species were planted in a 90:10% v/v (volume/volume) mixture of PRO-MIX® BX (Premier Tech Horticulture, Quakertown, PA, USA) and PROFILE® GREENS GRADE™ (Profile Products LLC, Buffalo Grove, IL, USA) planting mixture, which typically has a pH of 5.2 to 6.2 and an organic matter content of at least 50 percent, in plastic pots with a surface area of 103.2 square centimeters (cm^2). When required to ensure good germination and healthy plants, a fungicide treatment and/or other chemical or physical treatment was applied. The plants were grown for 7-36 days (d) in a greenhouse with an approximate 14-hour (h) photoperiod which was maintained at about 23° C. during the day and 22° C. during the night. Nutrients and water were added on a regular basis and supplemental lighting was provided with overhead metal halide 1000-Watt lamps as necessary. The plants were employed for testing when they reached the second or third true leaf stage.
Emulsifiable concentrates of each of each pyridine carboxylate herbicide (Compound A or Compound B) were prepared at 100 grams acid equivalent per liter (g ae/L). An aliquot of each emulsifiable concentrate was placed in a 25 mL glass vial and diluted with an aqueous mixture of 1.25% (v/v) ACTIROB® B esterified rapeseed oil (Bayer Crop Science, Research Triangle Park, NC, USA) or MSO® Concentrate with LECI-TECH® methylated soybean oil (Loveland Products, Loveland, CO, USA) to obtain concentrated stock solutions at the highest application rate for each herbicide, based upon a 12 milliliter (mL) application volume at a rate of 187 liters per hectare (L/ha). The concentrated stock solutions were further diluted with an aqueous mixture of 1.25% v/v ACTIROB® B or MSO® Concentrate with LECI-TECH® to obtain stock solutions at reduced application rates for each herbicide. Spray solutions of the herbicide combinations (Compound A or Compound B plus safener) were prepared by adding weighed amounts or aliquots of the safener to the stock solutions of Compound A or Compound B to form 12-mL spray solutions in two-way combinations.
The spray solutions were applied to the plant material with an overhead Mandel track sprayer equipped with 8002E nozzles calibrated to deliver 187 L/ha over an application area of 0.503 square meters (m^2) at a spray height of 18 inches (43 centimeters (cm)) above the average plant canopy. Control plants were sprayed in the same manner with the solvent blank. All herbicide (component a) application rates are given as “g ae/ha” and all safener (component b) application rates are given as “g ai/ha.”
The treated plants and control plants were placed in a greenhouse as described above and watered by sub-irrigation to prevent wash-off of the test compounds. After 20-22 d, the condition of the test plants as compared with that of the control plants was determined visually and scored on a scale of 0 to 100 percent where 0 corresponds to no injury and 100 corresponds to complete kill.

Row | SMILES | % visual injury, Ob [1] [%] | % visual injury, Ob ([2]; safener alone 5 g/ha) [%] | % visual injury, Ob ([2]; safener alone 10 g/ha) [%] | % visual injury, Ob ([2]; safener alone 20 g/ha) [%] | % visual injury, Ob ([2]; safener alone 40 g/ha) [%]
1 | N#CCOC(=O)c1nc(-c2ccc3cc[nH]c3c2F)c(F)c(N)c1Cl [Compound A, cyanomethyl 4-amino-3-chloro-5-fluoro-6-(7-fluoro-1H-indol-6-yl)pyridine-2-carboxylate] | 50 | – | – | – | –
2 | CCCCCC(C)OC(=O)COc1ccc(Cl)c2cccnc12 (centres unmarked) [CQC-mexyl, cloquintocet-mexyl] | – | 0 | 0 | 0 | 0
